Activity calls are given as the source filed them. The calls are words filed in the database; no cut-off is given here.
Key:
[1] = target: T1, Protein deacetylase HDAC6 (Homo sapiens, UniProt Q9UBN7); assay: Inhibition of HDAC6 (unknown origin) incubated for 20 hrs
T1 sequence (Q9UBN7 whole entry): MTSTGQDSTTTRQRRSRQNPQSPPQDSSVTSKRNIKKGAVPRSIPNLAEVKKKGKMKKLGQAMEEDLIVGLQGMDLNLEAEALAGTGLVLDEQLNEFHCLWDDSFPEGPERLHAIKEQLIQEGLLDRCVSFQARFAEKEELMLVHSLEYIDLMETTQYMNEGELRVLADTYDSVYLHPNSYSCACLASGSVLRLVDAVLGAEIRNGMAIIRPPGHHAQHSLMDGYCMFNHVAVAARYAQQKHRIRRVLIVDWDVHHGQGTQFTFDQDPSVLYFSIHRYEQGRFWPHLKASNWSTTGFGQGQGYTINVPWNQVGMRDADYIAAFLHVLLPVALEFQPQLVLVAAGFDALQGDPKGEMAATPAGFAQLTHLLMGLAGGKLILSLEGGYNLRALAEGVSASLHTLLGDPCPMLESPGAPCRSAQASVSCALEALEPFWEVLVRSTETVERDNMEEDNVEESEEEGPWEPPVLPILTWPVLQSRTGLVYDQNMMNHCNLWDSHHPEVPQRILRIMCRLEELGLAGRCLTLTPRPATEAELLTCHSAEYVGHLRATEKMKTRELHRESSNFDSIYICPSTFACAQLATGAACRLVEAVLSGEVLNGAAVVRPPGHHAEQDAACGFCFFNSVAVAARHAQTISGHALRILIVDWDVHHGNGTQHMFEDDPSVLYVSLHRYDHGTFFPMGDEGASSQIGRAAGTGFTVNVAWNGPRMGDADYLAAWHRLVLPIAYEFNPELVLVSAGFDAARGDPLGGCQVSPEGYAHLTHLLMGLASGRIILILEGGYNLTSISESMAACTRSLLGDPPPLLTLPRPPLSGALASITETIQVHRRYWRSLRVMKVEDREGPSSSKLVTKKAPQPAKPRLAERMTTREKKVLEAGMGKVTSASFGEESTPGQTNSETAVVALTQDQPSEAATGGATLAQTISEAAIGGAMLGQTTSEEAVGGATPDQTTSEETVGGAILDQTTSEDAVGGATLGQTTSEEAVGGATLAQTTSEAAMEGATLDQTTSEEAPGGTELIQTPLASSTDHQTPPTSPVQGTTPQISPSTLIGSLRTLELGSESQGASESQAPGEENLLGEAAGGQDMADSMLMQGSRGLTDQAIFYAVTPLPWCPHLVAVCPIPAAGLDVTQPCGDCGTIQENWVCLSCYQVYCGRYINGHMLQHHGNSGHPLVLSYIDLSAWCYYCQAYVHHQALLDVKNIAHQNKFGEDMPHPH

THP-1 = assay: Cytotoxicity against human THP-1 cells assessed as reduction in cell viability measured upto 250 uM by alamar blue staining based assay; format: functional
[2] = target: cAMP and cAMP-inhibited cGMP 3',5'-cyclic phosphodiesterase 10A (Homo sapiens) (UniProt Q9Y233); assay: Inhibition of PDE10A2 (unknown origin) at 91 uM relative to control
[3] = target: 3',5'-cyclic-AMP phosphodiesterase 4D (Homo sapiens) (UniProt Q08499); assay: Inhibition of PDE4D (unknown origin) at 64 uM relative to control
[4] = target: GABA-A receptor; anion channel (Homo sapiens) (UniProt P14867+P47870+P18507+P28472+P48169+Q99928+Q9UN88+P34903+O00591+O14764+Q8N1C3+P18505+P78334+P47869+P31644+Q16445); assay: Inhibition of GABAA (unknown origin) at 34 uM relative to control; format: protein-complex assay
[5] = Plasma protein binding in mouse assessed as unbound fraction; format: ADME, cell-free
[6] = Clearance in C57/BI mouse at 0.5 mg/kg, iv measured upto 24 hrs by LC-MS/MS analysis; format: ADME, organism-based; settings: in vivo
[7] = AUC (0 to infinity) in C57/BI mouse at 1 mg/kg, po measured upto 24 hrs by LC-MS/MS analysis; format: ADME, organism-based; parameters: time < 24 hrs, dose 1 mg/kg, route po; settings: in vivo
[8] = AUC (0 to infinity) in Wistar Han rat at 1 mg/kg, po measured upto 24 hrs by LC-MS/MS analysis; format: ADME, organism-based; parameters: time < 24 hrs, dose 1 mg/kg, route po; settings: in vivo
[9] = Half life in C57/BI mouse at 0.5 mg/kg, iv measured upto 24 hrs by LC-MS/MS analysis; format: ADME, organism-based; settings: in vivo
[10] = Oral bioavailability in C57/BI mouse at 1 mg/kg measured upto 24 hrs by LC-MS/MS analysis; format: ADME, organism-based; settings: in vivo
[11] = Oral bioavailability in Wistar Han rat at 1 mg/kg measured upto 24 hrs by LC-MS/MS analysis; format: ADME, organism-based; settings: in vivo
[12] = Volume of distribution at steady state in C57/BI mouse at 1 mg/kg, po or 0.5 mg/kg, iv measured upto 24 hrs by LC-MS/MS analysis; format: ADME, organism-based; settings: in vivo
[13] = tested on: Sodium-dependent noradrenaline transporter; assay: Inhibition of NET (unknown origin) at 49 uM relative to control; settings: Homo sapiens
[14] = AUC (0 to infinity) in Wistar Han rat at 10 mg/kg, po measured upto 24 hrs by LC-MS/MS analysis; format: ADME, organism-based; parameters: dose 10 mg/kg, time < 24 hrs, route po; settings: in vivo
[15] = Half life in C57/BI mouse at 2 mg/kg, iv measured upto 24 hrs by LC-MS/MS analysis; format: ADME, organism-based; settings: in vivo
[16] = Half life in C57/BI mouse at 10 mg/kg, po measured upto 24 hrs by LC-MS/MS analysis; format: ADME, organism-based; settings: in vivo
[17] = Half life in Wistar Han rat at 10 mg/kg, po measured upto 24 hrs by LC-MS/MS analysis; format: ADME, organism-based; settings: in vivo
[18] = Oral bioavailability in C57/BI mouse at 10 mg/kg measured upto 24 hrs by LC-MS/MS analysis; format: ADME, organism-based; settings: in vivo

cAMP and cAMP-inhibited cGMP 3',5'-cyclic phosphodiesterase 10A (Homo sapiens), sequence (Q9Y233 whole entry): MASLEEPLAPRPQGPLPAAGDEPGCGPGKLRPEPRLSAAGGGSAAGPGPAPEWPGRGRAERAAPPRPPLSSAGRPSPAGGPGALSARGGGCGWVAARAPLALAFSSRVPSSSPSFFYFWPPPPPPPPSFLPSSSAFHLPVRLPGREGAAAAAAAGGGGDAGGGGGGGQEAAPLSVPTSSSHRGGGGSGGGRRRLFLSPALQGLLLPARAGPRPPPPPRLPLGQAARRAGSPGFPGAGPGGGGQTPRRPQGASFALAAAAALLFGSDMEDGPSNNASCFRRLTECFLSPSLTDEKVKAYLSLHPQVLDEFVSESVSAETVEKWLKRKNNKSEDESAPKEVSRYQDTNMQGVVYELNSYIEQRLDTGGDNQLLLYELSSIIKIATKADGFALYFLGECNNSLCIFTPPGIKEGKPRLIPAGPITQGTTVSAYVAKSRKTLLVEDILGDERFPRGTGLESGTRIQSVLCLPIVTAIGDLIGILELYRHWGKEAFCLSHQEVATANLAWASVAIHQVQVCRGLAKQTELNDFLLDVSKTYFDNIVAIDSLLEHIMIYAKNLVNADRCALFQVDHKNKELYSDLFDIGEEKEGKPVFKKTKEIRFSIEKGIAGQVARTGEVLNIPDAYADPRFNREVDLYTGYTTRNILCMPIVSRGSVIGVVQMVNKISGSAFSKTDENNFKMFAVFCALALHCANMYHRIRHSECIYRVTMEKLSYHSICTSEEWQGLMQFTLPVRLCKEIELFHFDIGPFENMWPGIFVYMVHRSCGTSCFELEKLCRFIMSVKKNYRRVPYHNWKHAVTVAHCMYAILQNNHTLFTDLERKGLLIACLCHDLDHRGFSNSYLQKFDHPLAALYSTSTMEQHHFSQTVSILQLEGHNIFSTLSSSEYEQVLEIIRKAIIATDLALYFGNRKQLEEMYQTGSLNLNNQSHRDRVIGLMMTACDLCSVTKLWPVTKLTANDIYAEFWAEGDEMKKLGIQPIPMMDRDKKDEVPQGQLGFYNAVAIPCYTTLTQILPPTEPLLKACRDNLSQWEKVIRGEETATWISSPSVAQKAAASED
3',5'-cyclic-AMP phosphodiesterase 4D (Homo sapiens), sequence (Q08499 whole entry): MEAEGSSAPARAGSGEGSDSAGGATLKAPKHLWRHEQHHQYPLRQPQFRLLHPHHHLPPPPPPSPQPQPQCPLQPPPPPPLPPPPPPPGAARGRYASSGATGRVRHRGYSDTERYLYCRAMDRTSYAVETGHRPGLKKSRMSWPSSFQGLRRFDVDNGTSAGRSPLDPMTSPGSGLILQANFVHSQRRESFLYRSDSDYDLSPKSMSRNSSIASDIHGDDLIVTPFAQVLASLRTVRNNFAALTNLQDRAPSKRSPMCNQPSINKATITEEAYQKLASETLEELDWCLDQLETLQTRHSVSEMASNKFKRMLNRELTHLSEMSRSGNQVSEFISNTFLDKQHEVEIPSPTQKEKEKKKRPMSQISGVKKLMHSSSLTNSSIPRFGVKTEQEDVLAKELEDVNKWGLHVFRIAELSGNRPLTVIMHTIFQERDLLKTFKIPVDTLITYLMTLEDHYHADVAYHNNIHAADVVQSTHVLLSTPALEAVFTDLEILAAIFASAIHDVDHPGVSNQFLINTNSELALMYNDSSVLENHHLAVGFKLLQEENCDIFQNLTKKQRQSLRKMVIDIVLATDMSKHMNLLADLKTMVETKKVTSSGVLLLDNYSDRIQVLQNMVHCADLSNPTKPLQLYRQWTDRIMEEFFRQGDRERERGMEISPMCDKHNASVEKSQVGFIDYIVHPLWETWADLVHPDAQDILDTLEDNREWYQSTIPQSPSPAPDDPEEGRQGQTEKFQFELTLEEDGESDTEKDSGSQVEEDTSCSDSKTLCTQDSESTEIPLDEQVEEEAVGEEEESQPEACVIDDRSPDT

Row | SMILES | IC50 [1] | Activity (THP-1) | inhibition [2] | inhibition [3] | inhibition [4] | fraction unbound [5] | clearance [6] | AUC(0-inf) [7] | AUC(0-inf) [8] | half-life [9] | bioavailability [10] | bioavailability [11] | Vdss [12] | inhibition [13] | AUC(0-inf) [14] | half-life [15] | half-life [16] | half-life [17] | bioavailability [18]
1 | FC(F)c1nnc(-c2ccc(Cn3nnc(-c4ccccn4)n3)nc2)o1 | 1 nM | inactive | Active | Active | Active | 0.27 | 2.4 mL/min/kg | 21 µM·h | 15 µM·h | 4.7 h | 110% | 100% | 0.9 L/kg | Active |  |  |  |  | 
2 | O=C(NO)c1cnc(NC2(c3ccccc3)CCC(F)(F)CC2)nc1 |  |  |  |  |  |  |  |  |  |  |  |  |  |  | 0.05 µM·h | 0.2 h | 1.7 h | 2.1 h | 12%

Reference: ChEMBL document CHEMBL5370608, “Selective and Bioavailable HDAC6 2-(Difluoromethyl)-1,3,4-oxadiazole Substrate Inhibitors and Modeling of Their Bioactivation Mechanism” (J Med Chem, 2023)
